Measurements published in patent US11542273B2, “Amide compound having bet proteolysis-inducing action and medicinal application thereof” (MITSUBISHI TANABE PHARMA CORPORATION, priority 2018, dated 2023).
Like-named read-outs stand apart in the source and are kept apart here.

What was measured:
[1] = test system: human Burkitt lymphoma Raji cell; assay: Cytotoxic action on cancer cells (WST-8, 96 hr); assay type: cell-based; settings: 96 hr culture
Summary of the method: (§1)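 Viable cell number, measured by WST-8, is compared with compound-free cultures after treatment. Cells are kept in 10% FBS/RPMI1640 at 37° C under 5% CO2, and IC50 comes from the line joining the two survival rates that bracket 50%.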

[2] = test system: human T-cell leukemia Jurkat cells; assay: Cytotoxic action on cancer cells (WST-8, 96 hr); assay type: cell-based; settings: 96 hr culture
Summary of the method: as §1

[3] = test system: human acute myeloid leukemia MV-4-11 cell; assay: Cytotoxic action on cancer cells (WST-8, 96 hr); assay type: cell-based; settings: MV4-11, MV-4-11 cells, 96 hr culture
Summary of the method: as §1

[4] = test system: human bladder cancer 5637 cell; assay: Cytotoxic action on cancer cells (WST-8, 96 hr); assay type: cell-based; settings: 5637 cells, 96 hr culture
Summary of the method: as §1

[5] = test system: human breast cancer ZR-75-1 cell; assay: Cytotoxic action on cancer cells (WST-8, 96 hr); assay type: cell-based; settings: ZR-75-1 cells, 96 hr culture
Summary of the method: as §1

[6] = test system: human castration-resistant prostate cancer PC-3 cell; assay: Cytotoxic action on cancer cells (WST-8, 96 hr); assay type: cell-based; settings: PC-3 cells (printed P0-3 in table), 96 hr culture
Summary of the method: as §1

[7] = test system: human chronic myeloid leukemia K562 cell; assay: Cytotoxic action on cancer cells (WST-8, 96 hr); assay type: cell-based; settings: 96 hr culture
Summary of the method: as §1

[8] = test system: human colorectal cancer HCT116 cell; assay: Cytotoxic action on cancer cells (WST-8, 96 hr); assay type: cell-based; settings: HCT-116, 96 hr culture
Summary of the method: as §1

[9] = test system: human diffuse large B-cell lymphoma SU-DHL-6 cell; assay: Cytotoxic action on cancer cells (WST-8, 96 hr); assay type: cell-based; settings: SU-DHL-6 cells, 96 hr culture
Summary of the method: as §1

[10] = test system: human gastric cancer SNU-16 cell; assay: Cytotoxic action on cancer cells (WST-8, 96 hr); assay type: cell-based; settings: SNU-16 cells, 96 hr culture
Summary of the method: as §1

[11] = test system: human glioma U-87 MG cell; assay: Cytotoxic action on cancer cells (WST-8, 96 hr); assay type: cell-based; settings: U-87 MG cells, 96 hr culture
Summary of the method: as §1

[12] = test system: human large cell lung cancer NCI-H460 cell; assay: Cytotoxic action on cancer cells (WST-8, 96 hr); assay type: cell-based; settings: 96 hr culture
Summary of the method: as §1

[13] = test system: human liver cancer Hep G2 cell; assay: Cytotoxic action on cancer cells (WST-8, 96 hr); assay type: cell-based; settings: HepG2, 96 hr culture
Summary of the method: as §1

[14] = test system: human multiple myeloma MM.1S cell; assay: Cytotoxic action on cancer cells (WST-8, 96 hr); assay type: cell-based; settings: MM1.S, MM.1S cells, 96 hr culture
Summary of the method: as §1

[15] = test system: human non-small cell lung cancer NCI-H1975 cell; assay: Cytotoxic action on cancer cells (WST-8, 96 hr); assay type: cell-based; settings: 96 hr culture
Summary of the method: as §1

[16] = test system: human ovarian cancer A2780 cell; assay: Cytotoxic action on cancer cells (WST-8, 96 hr); assay type: cell-based; settings: 96 hr culture
Summary of the method: as §1

[17] = test system: human pancreatic cancer AsPC-1 cell; assay: Cytotoxic action on cancer cells (WST-8, 96 hr); assay type: cell-based; settings: ASPC1, AsPC-1 cells, 96 hr culture
Summary of the method: as §1

[18] = test system: human prostate cancer LNCaP cells; assay: Cytotoxic action on cancer cells (WST-8, 96 hr); assay type: cell-based; settings: read-out: LNCaP cytotoxic activity: IC50
Summary of the method: as §1

[19] = test system: human small cell lung cancer NCI-H82 cell; assay: Cytotoxic action on cancer cells (WST-8, 96 hr); assay type: cell-based; settings: 96 hr culture
Summary of the method: as §1

[20] = test system: human triple negative breast cancer MDA-MB-231 cell; assay: Cytotoxic action on cancer cells (WST-8, 96 hr); assay type: cell-based; settings: MDA-MB-231 cells, 96 hr culture
Summary of the method: as §1

[21] = test system: human uterine sarcoma MES-SA cell; assay: Cytotoxic action on cancer cells (WST-8, 96 hr); assay type: cell-based; settings: 96 hr culture
Summary of the method: as §1

[22] = target: BRD4 protein (Homo sapiens (Human), UniProt O60885); assay: BRD4 protein degradation inducing action in cancer cells (immunofluorescence, Operetta); assay type: cell-based; settings: LNCaP cells, 6 hr treatment, fluorescence intensity
Summary of the method: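 LNCaP prostate cancer cells in 10% FBS/RPMI1640 were exposed to compound for 6 hr at 37° C, then fixed, permeabilized and immunostained for BRD4 with Alexa Fluor 488 or 546 secondary antibodies plus Hoechst nuclear stain. Fluorescence was read by high-content imaging; DC50 is the concentration giving 50% of untreated signal, interpolated linearly between bracketing points.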

[23] = target: BRD4 bromodomain 1 (Homo sapiens (Human), UniProt O60885); assay: Inhibitory action on binding of BRD4 protein and ligand, Test Method 1 (TR-FRET, BRD4 bromodomain 1 TR-FRET Assay Kit); settings: Test Method 1, BRD4 bromodomain 1 and ligand
Experimental: The inhibitory action of the compound of the present invention on the binding of BRD4 protein and a ligand thereof was evaluated by the time-resolved fluorescence resonance energy transfer (TR-FRET) method using BRD4 bromodomain 1 TR-FRET Assay Kit (Cayman). In this experiment, (+)-JQ1 known to have an inhibitory activity on the binding of BRD4 protein and a ligand therefor was used as a positive control drug. A test compound dissolved in DMSO was diluted with TR-FRET Assay Buffer, added to a 384 well black plate, BRD4 bromodomain 1 Europium Chelete was further added and the cells were incubated at room temperature for 15 min. Thereafter, BRD4 bromodomain 1 Ligand/APC Acceptor Mixture was added and the cells were incubated at room temperature for 1 hr. The binding amount of the BRD4 protein and ligand was measured as fluorescence intensity (excitation: 340 nm/emission: 620 nm and excitation: 340 nm/emission: 670 nm).
It was calculated from the straight line connecting the degradation rate at two points enclosing the 50% fluorescence intensity and the compound concentration.

[24] = target: BRD4-1 (GST) (Homo sapiens (Human), UniProt O60885); assay: Inhibitory action on binding of BRD4 protein and acetylated histone H4, Test Method 2 (TR-FRET); settings: Test Method 2, BRD4-1 (GST) and acetylated histone H4, TR-FRET
Experimental: The inhibitory action of the compound of the present invention on the binding of BRD4 protein and a ligand thereof (acetylated histone H4) was evaluated by the time-resolved fluorescence resonance energy transfer (TR-FRET) method using EPIgeneous™ Binding Domain Kit A (Cisbio), BRD4-1 (GST) (Reaction Biology Corp) and [Lys(Ac)5/8/12/16]-Histone H4(1-21)-GGK (Biotin) (Eurogentec). In this experiment, (+)-JQ1 known to have an inhibitory activity on the binding of BRD4 protein and acetylated histone H4 therefor was used as a positive control drug. A test compound dissolved DMSO was diluted with attached Diluent Buffer, added to a 384 well white plate, and BRD4-1 (GST) and [Lys(Ac)5/8/12/16]-Histone H4(1-21)-GGK (Biotin) were further added. Thereafter, Streptavidin-d2 conjugate and Anti-GST-Eu^3+ Cryptate Conjugate were added and the cells were incubated at room temperature for 3 hr. The binding amount of the BRD4 protein and acetylated histone H4 was measured as the fluorescence intensity (excitation: 314 nm/emission: 620 nm and excitation: 314 nm/emission: 665 nm). […] It was calculated from the straight line connecting the degradation rate at two points enclosing the 50% fluorescence intensity and the compound concentration.

## COC(=O)C[C@@H]1N=C(c2ccc(-c3ccc(OCCOCC(=O)N[C@H](C(=O)N4C[C@H](O)C[C@H]4C(=O)N[C@@H](C)c4ccc(-c5scnc5C)cc4)C(C)(C)C)c(C#N)c3)cc2)c2c(sc(C)c2C)-n2c(C)nnc21 [Example 8, methyl [(6S)-4-(3′-cyano-4′-{2-[2-({(2S)-1-[(2S,4R)-4-hydroxy-2-({(1S)-1-[4-(4-methyl-1,3-thiazol-5-yl)phenyl]ethyl}carbamoyl)pyrrolidin-1-yl]-3,3-dimethyl-1-oxobutan-2-yl}amino)-2-oxoethoxy]ethoxy}[1,1′-biphenyl]-4-yl)-2,3,9-trimethyl-6H-thieno[3,2-f][1,2,4]triazolo[4,3-a][1,4]diazepin-6-yl]acetate]
[1]
  IC50: 0.0057 µM
[2]
  IC50: 0.0043 µM
[3]
  IC50: 0.00015 µM
[4]
  IC50: 0.0021 µM
[5]
  IC50: 0.0042 µM
[6]
  IC50: 0.0025 µM
[7]
  IC50: 0.0052 µM
[8]
  IC50: 0.037 µM
[9]
  IC50: 0.0021 µM
[10]
  IC50: 0.017 µM
[11]
  IC50: 0.025 µM
[12]
  IC50: 0.075 µM
[13]
  IC50: 0.048 µM
[14]
  IC50: 0.00024 µM
[15]
  IC50: 0.02 µM
[16]
  IC50: 0.00036 µM
[17]
  IC50: 0.081 µM
[18]; Homo sapiens, LNCaP, 96 h
  IC50: 0.00068 µM
[19]
  IC50: 0.035 µM
[20]
  IC50: 0.014 µM
[21]
  IC50: 0.021 µM
[22]
  DC50: 0.00041 µM
[23]
  IC50: 0.082 µM

## (+)-JQ1 [reference compound]
[18]; LNCaP cells, 96 hr culture, WST-8
  IC50: 19 µM
[23]
  IC50: 7.4 µM
[24]
  IC50: 0.55 µM
